Experimental data as given in PubChem BioAssay AID1745844 (Carcinogenic Potency Database (CPDB), 2022).
Active and inactive are the calls of the source. How the calls were made is not given here.

Tested on: rodent lifetime carcinogenesis bioassay, tumor incidence TD50
Assay: chronic cancer bioassays in animals – CPDB, compiled studies (AID 1745844)

For `CCCN(CCC)S(=O)(=O)c1ccc(C(=O)O)cc1`, the TD50 (mouse, strain B6C3F1, females, by gavage, site: any site (literature study), lesion: several types, types named in the paper, dosed 103 weeks, study length 104 weeks) was 498 mg/kg/day, the TD50 (mouse, strain B6C3F1, females, by gavage, site: liver, lesion: hepatocellular adenoma + hepatocellular carcinoma + neoplastic nodule, dosed 103 weeks, study length 104 weeks) was 540 mg/kg/day and the TD50 (mouse, strain B6C3F1, females, by gavage, site: liver, lesion: hepatocellular adenoma + hepatocellular carcinoma, dosed 103 weeks, study length 104 weeks) was 540 mg/kg/day. The TD50 (mouse, strain B6C3F1, females, by gavage, site: liver, lesion: hepatocellular adenoma, dosed 103 weeks, study length 104 weeks) was 561 mg/kg/day, the TD50 (mouse, strain B6C3F1, females, by gavage, site: lung, lesion: alveolar/bronchiolar adenoma + alveolar/bronchiolar carcinoma, dosed 103 weeks, study length 104 weeks) was 1980 mg/kg/day and the TD50 (mouse, strain B6C3F1, males, by gavage, site: any site (literature study), lesion: several types, types named in the paper, dosed 103 weeks, study length 104 weeks) was 276 mg/kg/day. The TD50 (mouse, strain B6C3F1, males, by gavage, site: liver, lesion: hepatocellular adenoma + hepatocellular carcinoma + neoplastic nodule, dosed 103 weeks, study length 104 weeks) was 731 mg/kg/day, the TD50 (mouse, strain B6C3F1, males, by gavage, site: lung, lesion: alveolar/bronchiolar adenoma + alveolar/bronchiolar carcinoma, dosed 103 weeks, study length 104 weeks) was 2320 mg/kg/day and the TD50 (mouse, strain B6C3F1, males, by gavage, site: subcutaneous tissue, lesion: fibroma, dosed 103 weeks, study length 104 weeks) was 2130 mg/kg/day (inactive). The TD50 (rat, strain Fischer 344, females, by gavage, site: any site (literature study), lesion: several types, types named in the paper, dosed 103 weeks, study length 104 weeks) was 1540 mg/kg/day (inactive), the TD50 (rat, strain Fischer 344, females, by gavage, site: liver, lesion: hepatocellular adenoma + hepatocellular carcinoma + neoplastic nodule, dosed 103 weeks, study length 104 weeks) was 1790 mg/kg/day and the TD50 (rat, strain Fischer 344, males, by gavage, site: any site (literature study), lesion: several types, types named in the paper, dosed 103 weeks, study length 104 weeks) was 296 mg/kg/day. For the same compound, the TD50 (rat, strain Fischer 344, males, by gavage, site: testis, lesion: interstitial-cell adenoma, bilateral + interstitial-cell adenoma, dosed 103 weeks, study length 104 weeks) was 212 mg/kg/day (inactive).
With `S=C(S)NCCNC(=S)S` the carcinogen call (mouse, strain B6AKF1, females, oral dosing, site: any site (literature study), lesion: several types, types named in the paper, dosed 76 weeks, study length 76 weeks) was “negative (inactive)”, the carcinogen call (mouse, strain B6AKF1, females, oral dosing, site: liver, lesion: hepatoma, dosed 76 weeks, study length 76 weeks) was “negative (inactive)” and the carcinogen call (mouse, strain B6AKF1, females, oral dosing, site: lung, lesion: several types, types named in the paper, dosed 76 weeks, study length 76 weeks) was “negative (inactive)”. The carcinogen call (mouse, strain B6AKF1, males, oral dosing, site: any site (literature study), lesion: several types, types named in the paper, dosed 76 weeks, study length 76 weeks) was “negative (inactive)”, the carcinogen call (mouse, strain B6AKF1, males, oral dosing, site: liver, lesion: hepatoma, dosed 76 weeks, study length 76 weeks) was “negative (inactive)” and the carcinogen call (mouse, strain B6AKF1, males, oral dosing, site: lung, lesion: adenoma, dosed 76 weeks, study length 76 weeks) was “negative (inactive)”. The carcinogen call (mouse, strain B6C3F1, females, oral dosing, site: any site (literature study), lesion: several types, types named in the paper, dosed 76 weeks, study length 76 weeks) was “negative (inactive)”, the carcinogen call (mouse, strain B6C3F1, females, oral dosing, site: liver, lesion: hepatoma, dosed 76 weeks, study length 76 weeks) was “negative (inactive)” and the carcinogen call (mouse, strain B6C3F1, females, oral dosing, site: lung, lesion: adenoma, dosed 76 weeks, study length 76 weeks) was “negative (inactive)”. For the same compound, the carcinogen call (mouse, strain B6C3F1, males, oral dosing, site: any site (literature study), lesion: several types, types named in the paper, dosed 76 weeks, study length 76 weeks) was “negative (inactive)”, the TD50 (mouse, strain B6C3F1, males, oral dosing, site: liver, lesion: hepatoma, dosed 76 weeks, study length 76 weeks) was 866 mg/kg/day (inactive) and the carcinogen call (mouse, strain B6C3F1, males, oral dosing, site: lung, lesion: adenoma, dosed 76 weeks, study length 76 weeks) was “negative (inactive)”.
For `CCN(Cc1cccc(S(=O)(=O)O)c1)c1ccc(C(=C2C=CC(=[N+](CC)Cc3cccc(S(=O)(=O)[O-])c3)C=C2)c2ccc(S(=O)(=O)O)cc2)cc1`, the TD50 (mouse, strain C3HeB/FeJ, females, in feed, site: any site (literature study), lesion: malignant tumor, dosed 104 weeks, study length 104 weeks) was 152000 mg/kg/day (inactive), the TD50 (mouse, strain C3HeB/FeJ, females, in feed, site: any site (literature study), lesion: several types, types named in the paper, dosed 104 weeks, study length 104 weeks) was 148000 mg/kg/day and the TD50 (mouse, strain C3HeB/FeJ, females, in feed, site: lung, lesion: several types, types named in the paper, dosed 104 weeks, study length 104 weeks) was 43800 mg/kg/day. For the same compound, the TD50 (mouse, strain C3HeB/FeJ, males, in feed, site: any site (literature study), lesion: malignant tumor, dosed 104 weeks, study length 104 weeks) was 49300 mg/kg/day (inactive), the TD50 (mouse, strain C3HeB/FeJ, males, in feed, site: any site (literature study), lesion: several types, types named in the paper, dosed 104 weeks, study length 104 weeks) was 318000 mg/kg/day and the TD50 (mouse, strain C3HeB/FeJ, males, in feed, site: liver, lesion: several types, types named in the paper, dosed 104 weeks, study length 104 weeks) was 18900 mg/kg/day. The TD50 (mouse, strain C3HeB/FeJ, males, in feed, site: lung, lesion: several types, types named in the paper, dosed 104 weeks, study length 104 weeks) was 58200 mg/kg/day, the carcinogen call (rat, strain Not specified, males, in feed, site: any site (literature study), lesion: one or several types, types not named, dosed 65 weeks, study length 65 weeks) was “negative (inactive)” and the carcinogen call (rat, strain Osborne-Mendel, females, in feed, site: any site (literature study), lesion: malignant tumor, dosed 104 weeks, study length 104 weeks) was “negative (inactive)”. For the same compound, the carcinogen call (rat, strain Osborne-Mendel, females, in feed, site: any site (literature study), lesion: several types, types named in the paper, dosed 104 weeks, study length 104 weeks) was “negative (inactive)”, the carcinogen call (rat, strain Osborne-Mendel, females, in feed, site: liver, lesion: one or several types, types not named, dosed 104 weeks, study length 104 weeks) was “negative (inactive)” and the carcinogen call (rat, strain Osborne-Mendel, males, in feed, site: any site (literature study), lesion: malignant tumor, dosed 104 weeks, study length 104 weeks) was “negative (inactive)”. For the same compound, the carcinogen call (rat, strain Osborne-Mendel, males, in feed, site: any site (literature study), lesion: several types, types named in the paper, dosed 104 weeks, study length 104 weeks) was “negative (inactive)”, the carcinogen call (rat, strain Osborne-Mendel, males, in feed, site: liver, lesion: hepatocellular adenoma, dosed 104 weeks, study length 104 weeks) was “negative (inactive)” and the TD50 (rat, strain Wistar, both sexes, in feed, site: cecum, lesion: malignant lymphoma, dosed 95 weeks, study length 95 weeks) was 5640 mg/kg/day.
